According to patent publication US12458628B2, “Cancer therapeutic” (J-Pharma Co., Ltd., priority 2017, dated 2025):
Several values for one entry are separate records, joined by “and”; a condition that tells them apart may be missing. Equal entries are not always repeated.

Test system: patients with solid cancer
Assay: Phase 1 clinical trial of JPH203 in patients with solid cancer (safety/DLT and efficacy)
Assay type: in vivo, human
Settings: for Effective case: single dose then once daily for 7 consecutive days per cycle; for DLT (dose limiting toxicity): between single administration and test at end of cycle 1
Protocol: The injection is a lyophilized formulation and contains 50 mg of JPH203 and 1200 mg of sulfobutyl ether-β-cyclodextrin in one vial.
Phase 1 Clinical Trial of JPH203 in Patients with Solid Cancer
This clinical trial involved patients with solid cancer. The object of this clinical trial was to evaluate the safety (dose limiting toxicity: DLT) and efficacy of JPH203.
The patient's primary inclusion criteria and exclusion criteria are as follows:
• Patients in advanced stage, who have been confirmed to have solid cancer and who are refractory or intolerant to standard therapy • Patients whose biopsies or pre-existing tissues are available for LAT1 antibody staining • Patients who can be expected to survive 90 days or more from the date of enrollment Exclusion Criteria • Patients with serious or clinically problematic anamnesis or complications • Patients who received chemotherapy, radiation therapy, immunotherapy, or other therapies aimed at tumor shrinkage effect within 4 weeks prior to study drug administration
The dosing schedule is as follows:
On Day 1, a predetermined dosage was administered in a single dose. The dosage was 12 mg/m^2 (4 cases), 25 mg/m^2 (3 cases), 40 mg/m^2 (3 cases), 60 mg/m^2 (6 cases), or 85 mg/m^2 (1 case). One case of the 12 mg/m^2 dosage group was discontinued after only a single dose due to disease progression.
Cycle 1 was started 8 days or more after the single administration, and the injection was administered once daily for 7 consecutive days. Tests including CT were performed on days 28 to 31 from the start date of cycle 1 administration.
Within 28 days of the test day of the previous cycle, the next cycle was started and the injection was administered once daily for 7 consecutive days. Tests were performed on days 28 to 31 from the start date of administration.
DLT was the following symptoms occurring between the single administration and the test at the end of cycle 1 (from the start of cycle 1 to day 28) and for which the investigator (subinvestigator) determined that the relationship with the study drug could not be denied (“related,” “probably related,” “possibly related,” or “unlikely related”). However, the final determination of DLT was made in consultation between the investigator and the sponsor. If necessary, advice from the Data and Safety Monitoring Board was sought upon determining DLT. • 1) Non-hematologic toxicity of grade 3 or more for which the investigator (subinvestigator) determines that it is difficult to continue the administration of the study drug (except for acneform rash, maculo-papular rash, or urticaria of grade 3, and nausea, vomiting, inappetence, diarrhea, constipation, or fatigue that recovers to grade 1 by symptomatic therapy within 7 days after the occurrence) • 2) Hematotoxicity of grade 4 or more or thrombocytopenia of grade 3 or more requiring blood transfusion • 3) Febrile neutropenia
It should be noted that PD (progression) is when the sum of diameters of the target lesion is increased by 20% or more and the absolute value of sum diameters is increased by 5 mm or more compared to the smallest sum diameters measured at or after the baseline.

Nc1cc(COc2c(Cl)cc(C[C@H](N)C(=O)O)cc2Cl)c2oc(-c3ccccc3)nc2c1 [JPH203, O-(5-amino-2-phenylbenzoxazol-7-yl)methyl-3,5-dichloro-L-tyrosine]
cases of no change in tumor size (stable: SD) (12 mg/m^2 dosage group): 1 case | cases of tumor size reduction of 30% or more (partial response: PR) (12 mg/m^2 dosage group): One | cases of no change in tumor size (stable: SD) (25 mg/m^2 dosage group): 1 case | cases of no change in tumor size (stable: SD) (40 mg/m^2 dosage group): 1 case | AST/ALT increase of grade 3 (DLT) (60 mg/m^2 dosage group): observed | cases of no change in tumor size (stable: SD) (60 mg/m^2 dosage group): 1 case | AST/ALT increase of grade 3 (DLT) (85 mg/m^2 dosage group): observed | Effective case (dosage 12 mg/m^2, injection): 2/3 | DLT (dose limiting toxicity) (dosage 12 mg/m^2): No | Effective case (dosage 25 mg/m^2, injection): 1/3 | DLT (dose limiting toxicity) (dosage 25 mg/m^2): No | Effective case (dosage 40 mg/m^2, injection): 1/3 | DLT (dose limiting toxicity) (dosage 40 mg/m^2): No | Effective case (dosage 60 mg/m^2, injection): 1/6 | DLT (dose limiting toxicity) (dosage 60 mg/m^2): Yes | Effective case (dosage 85 mg/m^2, injection): 0/1 | DLT (dose limiting toxicity) (dosage 85 mg/m^2): Yes | cases with significant shrinkage effect in lymph node metastatic lesions (lymph node metastatic lesions, all dosage groups): 3 out of 7 | survival prolonging effects by cancer type (Swimmer plot, FIG. 2) (months of survival for each subject): exhibits survival prolonging effects on bile duct cancer, colorectal cancer, and pancreatic cancer | shrinkage of lymph node metastatic lesions (individual cases) (the 3 responding cases out of 7): 55% and 69.4% and 80% | tumor shrinkage effects by cancer type (Waterfall plot, FIG. 1) (tumor shrinkage ratio for each subject): exhibits tumor shrinkage effects on bile duct cancer, colorectal cancer, esophageal cancer, and breast cancer
